Values after ≈ are worked out from the molar mass of the structure shown. “Also recorded” adds a separate entry of the source. Like-named read-outs stand apart in the source and are kept apart here.
Tests used:
Format in all cases: physicochemical
[1] = Stability of crystalline forms under dry (vacuum, 45° C.) and humid (RH >95%) conditions, XRPD; details: dried under vacuum at 45° C.
Experimental: For dry conditions, the sample was dried under vacuum at 45° C. followed by XRPD analysis. Later the sample was subjected to high humidity conditions (RH >95%) followed by XRPD analysis.
The MeOH and DCM solvates of Compound (I) were dried on XRPD plates under vacuum at 45° C. and were analyzed by XRPD the following day.
Pattern E was dried at 45° C. under vacuum overnight and analyzed by XRPD. The following day, it was subjected to high humidity conditions (>95%) and later analyzed by XRPD the next day. […] FIG. 26 illustrates the XRPD comparison of dried and humid samples with Compound (I), Form I, Pattern A.

[2] = Dynamic vapor sorption (DVS) with post-DVS XRPD
Experimental: Samples were analyzed using an Aquadyne DVS-2 gravimetric water sorption analyzer. The relative humidity was adjusted between 2-95% and the weight of the sample was continuously monitored and recorded with respect to the relative humidity and time.
The material was subjected under Dynamic Vapor Sorption (DVS, FIG. 6).

[3] = Solubility assessment of Form I, gravimetric, slurried 48 h in solvents/solvent mixtures; details: thermodynamic from solid
Experimental: The Solubility of Form I was measured gravimetrically in 15 different solvents and solvent mixtures at 15 and 45° C. About 75 mg of the compound was dispensed in 10 volumes (750 μL) of the solvent/solvent mixture and slurried for 48 h.
The vials were centrifuged. The supernatant was collected and left for slow evaporation under vacuum at 45° C. The solids obtained after evaporation were used to determine the solubility of Form I and analyzed by XRPD for any new forms.

[4] = Dynamic vapor sorption (DVS) with post-DVS XRPD; details: relative humidity between 0-95%
[5] = Solid form stability test (up to 7 days) under high humidity, XRPD
Experimental: In one aspect, provided herein is 2-((2-chlorophenyl)(phenyl)amino)-N-(7-(hydroxyamino)-7-oxoheptyl)pyrimidine-5-carboxamide of Form I (referred to herein as “Form I”). Form I (of Compound (I)) was observed under a polarized microscope and its crystalline nature was determined by using X-ray powder diffraction (XRPD) and Pattern A was assigned to it for identification (See Example 3). The chemical structure of the material was confirmed by proton-nuclear magnetic resonance (^1H-NMR) and the thermal characterization of the material was carried out by differential scanning calorimetry (DSC) and thermal gravimetric analysis (TGA) (see Examples 2 and 3). […] The XRPD analysis of this form including peak identification is found in Example 11 (See FIG. 40).

O=C(CCCCCCNC(=O)c1cnc(N(c2ccccc2)c2ccccc2Cl)nc1)NO [Form I, 2-((2-chlorophenyl)(phenyl)amino)-N-(7-(hydroxyamino)-7-oxoheptyl)pyrimidine-5-carboxamide]
XRPD pattern after drying at 45° C. (under vacuum) [1]: Pattern A, | Hygroscopicity [2]: low hygroscopicity | Post DVS XRPD (crystalline form after DVS) ([2]; XRPD of the post-DVS sample): no change in the crystalline form; also recorded: Pattern A, | solubility at 48 h ([3]; aqueous with cosolvent or surfactant or cyclodextrin, EtOH:H2O (1:1), temperature not stated, read-out: Solubility (moderately soluble)): 10 to 55 mg/mL (≈ 21.4 to 118 mM) | solubility at 48 h ([3]; aqueous with cosolvent or surfactant or cyclodextrin, acetone:H2O (1:1), temperature not stated, read-out: Solubility (moderately soluble)): 10 to 55 mg/mL (≈ 21.4 to 118 mM) | solubility at 48 h ([3]; organic solvent or mixture, Acetone, 15° C., read-out: Solubility): 2 mg/mL (≈ 4.27 mM) | solubility at 48 h ([3]; organic solvent or mixture, Acetone, 45° C., read-out: Solubility): 11 mg/mL (≈ 23.5 mM) | solubility at 48 h ([3]; organic solvent or mixture, Acetone:H2O (95:5), 15° C., read-out: Solubility): 21 mg/mL (≈ 44.9 mM) | solubility at 48 h ([3]; organic solvent or mixture, Acetone:H2O (95:5), 45° C., read-out: Solubility): 48 mg/mL (≈ 103 mM) | solubility at 48 h ([3]; organic solvent or mixture, Acetonitrile (ACN), 15° C., read-out: Solubility): < 1 mg/mL | solubility at 48 h ([3]; organic solvent or mixture, Acetonitrile (ACN), 45° C., read-out: Solubility): 1 mg/mL (≈ 2.14 mM) | solubility at 48 h ([3]; organic solvent or mixture, DCM, temperature not stated, read-out: Solubility (less soluble)): < 1 mg/mL | solubility at 48 h ([3]; organic solvent or mixture, DMA, temperature not stated, read-out: Solubility (freely soluble)): > 100 mg/mL | solubility at 48 h ([3]; organic solvent or mixture, Dimethylacetamide (DMA), 15° C., read-out: Solubility): > 100 mg/mL | solubility at 48 h ([3]; organic solvent or mixture, Dimethylacetamide (DMA), 45° C., read-out: Solubility): > 100 mg/mL | solubility at 48 h ([3]; organic solvent or mixture, EtOAc, temperature not stated, read-out: Solubility (less soluble)): < 1 mg/mL | solubility at 48 h ([3]; organic solvent or mixture, EtOH, temperature not stated, read-out: Solubility (moderately soluble)): 10 to 55 mg/mL (≈ 21.4 to 118 mM) | solubility at 48 h ([3]; organic solvent or mixture, EtOH:H2O (95:5), 15° C., read-out: Solubility): 18 mg/mL (≈ 38.5 mM) | solubility at 48 h ([3]; organic solvent or mixture, EtOH:H2O (95:5), 45° C., read-out: Solubility): 53 mg/mL (≈ 113 mM) | solubility at 48 h ([3]; organic solvent or mixture, Ethanol (EtOH), 15° C., read-out: Solubility): 11 mg/mL (≈ 23.5 mM) | solubility at 48 h ([3]; organic solvent or mixture, Ethanol (EtOH), 45° C., read-out: Solubility): 39 mg/mL (≈ 83.3 mM) | solubility at 48 h ([3]; organic solvent or mixture, Ethyl acetate (EtOAc), 15° C., read-out: Solubility): < 1 mg/mL | solubility at 48 h ([3]; organic solvent or mixture, Ethyl acetate (EtOAc), 45° C., read-out: Solubility): 1 mg/mL (≈ 2.14 mM) | solubility at 48 h ([3]; organic solvent or mixture, Heptane (HEP), 15° C., read-out: Solubility): < 1 mg/mL | solubility at 48 h ([3]; organic solvent or mixture, Heptane (HEP), 45° C., read-out: Solubility): < 1 mg/mL | solubility at 48 h ([3]; organic solvent or mixture, IPA, temperature not stated, read-out: Solubility (slightly soluble)): ~2 mg/mL (≈ 4.27 mM) | solubility at 48 h ([3]; organic solvent or mixture, Isopropanol (IPA), 15° C., read-out: Solubility): 1 mg/mL (≈ 2.14 mM) | solubility at 48 h ([3]; organic solvent or mixture, Isopropanol (IPA), 45° C., read-out: Solubility): 12 mg/mL (≈ 25.6 mM) | solubility at 48 h ([3]; organic solvent or mixture, MeOH, temperature not stated, read-out: Solubility (freely soluble)): > 100 mg/mL | solubility at 48 h ([3]; organic solvent or mixture, Methanol (MeOH), 15° C., read-out: Solubility): 11 mg/mL (≈ 23.5 mM) | solubility at 48 h ([3]; organic solvent or mixture, Methanol (MeOH), 45° C., read-out: Solubility): > 100 mg/mL | solubility at 48 h ([3]; organic solvent or mixture, TBME, temperature not stated, read-out: Solubility (less soluble)): < 1 mg/mL | solubility at 48 h ([3]; organic solvent or mixture, TFE, temperature not stated, read-out: Solubility (freely soluble)): > 100 mg/mL | solubility at 48 h ([3]; organic solvent or mixture, THF, temperature not stated, read-out: Solubility (moderately soluble)): 10 to 55 mg/mL (≈ 21.4 to 118 mM) | solubility at 48 h ([3]; organic solvent or mixture, Tert-butyl methyl ether (TBME), 15° C., read-out: Solubility): < 1 mg/mL | solubility at 48 h ([3]; organic solvent or mixture, Tert-butyl methyl ether (TBME), 45° C., read-out: Solubility): 2 mg/mL (≈ 4.27 mM) | solubility at 48 h ([3]; organic solvent or mixture, Tetrahydrofuran (THF), 15° C., read-out: Solubility): 13 mg/mL (≈ 27.8 mM) | solubility at 48 h ([3]; organic solvent or mixture, Tetrahydrofuran (THF), 45° C., read-out: Solubility): 50 mg/mL (≈ 107 mM) | solubility at 48 h ([3]; organic solvent or mixture, acetone, temperature not stated, read-out: Solubility (slightly soluble)): ~2 mg/mL (≈ 4.27 mM) | solubility at 48 h ([3]; organic solvent or mixture, acetonitrile, temperature not stated, read-out: Solubility (less soluble)): < 1 mg/mL | solubility at 48 h ([3]; organic solvent or mixture, heptane, temperature not stated, read-out: Solubility (less soluble)): < 1 mg/mL | solubility at 48 h ([3]; Water (H2O), 15° C., read-out: Solubility): < 1 mg/mL | solubility at 48 h ([3]; Water (H2O), 45° C., read-out: Solubility): < 1 mg/mL | solubility at 48 h ([3]; water, temperature not stated, read-out: Solubility (less soluble)): < 1 mg/mL | solubility at 48 h ([3]; trifluoroethanol (TFE), organic solvent or mixture, Trifluoro Ethanol (TFE), 15° C., read-out: Solubility): > 100 mg/mL | solubility at 48 h ([3]; trifluoroethanol (TFE), organic solvent or mixture, Trifluoro Ethanol (TFE), 45° C., read-out: Solubility): > 100 mg/mL | Moisture uptake (DVS) [4]: less than 0.2% | Solid form stability under high humidity (XRPD) [5]: stability of Form I up to seven days; also recorded: stable under high humidity up to a week

From patent US10464906B2, “Crystalline forms of a histone deacetylase inhibitor” (Acetylon Pharmaceuticals, Inc., priority 2015, dated 2019)
